# Measured values taken from publication PMC9774241, “Associating Biological Activity and Predicted Structure of Antimicrobial Peptides from Amphibians and Insects” (Antibiotics, 2022).
# Entries after “also recorded” stand apart in the source; their conditions may differ. No end group written: not given here.
# Key:
# [1] = test system: Escherichia coli ATCC 25922; assay type: cell-based; conditions: broth microdilution in MHB, peptide 128 down to 0.5 µg/mL, 20–24 h at 37 °C, no visible growth; range of three independent experiments
# In short: (§1)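 CLSI broth microdilution in MHB, adapted for cationic peptides, in polypropylene plates; peptides 2-fold from 128 to 0.5 µg/mL, inoculum 2–8 × 10^5 cfu/mL. Incubated 20–24 h at 37 °C; MIC = lowest concentration with no visible growth.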
# [2] = test system: Salmonella enterica serovar Enteritidis (human clinical isolate); assay type: cell-based; conditions: broth microdilution in MHB, peptide 128 down to 0.5 µg/mL, 20–24 h at 37 °C, no visible growth; range of three independent experiments
# In short: as §1
# [3] = test system: Staphylococcus aureus ATCC 29213; assay type: cell-based; conditions: broth microdilution in MHB, peptide 128 down to 0.5 µg/mL, 20–24 h at 37 °C, no visible growth; range of three independent experiments
# In short: as §1
# porcine red blood cells = experiment: Hemolysis assay (HC50); assay type: cell-based, pig; conditions: porcine RBCs, highest concentration tested 128 µg/mL
# Protocol: Peptides were evaluated for toxicity using three independent hemolysis experiments. Whole blood from healthy donor pigs, supplemented with Na Citrate, was purchased from Lampire Biological Laboratories (Pipersville, PA, USA). Red blood cells (RBCs) were washed and isolated by three centrifugation cycles using Roswell Park Memorial Institute medium (RPMI; Thermo-Fisher Scientific) to create a 1% (v/v) RBC solution. […] Following a minimum 30 min incubation at 37 °C, plates were centrifuged and ½ volume from each supernatant was transferred to a new 96-well plate. The absorbance of these wells was measured at 415 nm. To quantify hemolytic activity and determine the AMP concentration that lyses 50% of the RBCs (HC50), absorbance reading from wells containing RBCs treated with 11 μL of a 2% TritonX-100 detergent solution (TX-100) or RPMI (AMP solvent-only) were used to define 100% and 0% hemolysis, respectively. All centrifugation steps were performed at 500× g for five minutes in an Allegra-6R centrifuge (Beckman Coulter, Brea, CA, USA).
# HEK293 cells = experiment: alamarBlue cell viability assay (cytotoxicity); assay type: cell-based, human
# Protocol: The human embryonic kidney cell line HEK293 and the corresponding growth media and supplements were purchased from the ATCC. The cells were maintained in Eagle’s Minimum Essential Medium (EMEM) supplemented with 10% fetal bovine serum (FBS) and 1% Penicillin-Streptomycin solution and grown in a 5% CO2 incubator at 37 °C. Approximately 1 × 10^4 cells were distributed to each well of a 96-well flat-bottom cell culture plate (Corning #3595, Corning, NY, USA). Cells were incubated overnight to allow them to adhere. Lyophilized 80 µg peptide aliquots were resuspended to 1.28 mg/mL with UltraPure deionized water and serially diluted in polypropylene 96-well microtiter plates from 128-0.5 µg/mL. TX-100 was diluted to 2% in UltraPure deionized water and added as a positive control. Complete growth medium was added to the peptides and TX-100 containing wells. Spent growth medium of wells with adhered cells was replaced with the contents of wells containing serially diluted peptides or TX-100. Cells were incubated for four hours at 37 °C in 5% CO2 incubator. Growth medium containing peptides or TX-100 was replaced with fresh growth medium containing 10% (v/v) alamarBlue (Bio-Rad Laboratories, Hercules, CA, USA) and incubated for 20 h. Fluorescence was measured at excitation of 540 nm and emission of 590 nm in a Cytation 5 plate reader (Agilent BioTek, Winooski, VT, USA) and results recorded and analyzed with Gen5 software (Agilent BioTek, Winooski, VT, USA). The average fluorescence reads of TX-100 and growth media only wells were used to calculate 0% and 100% cell viability, respectively. The percentage of viable cells at each peptide concentration was determined by: cell viability%=1−fluorescence100% viable− fluorescencepeptide/fluorescence100% viable−fluorescence0% viable×100%
Sequence,"MIC, E. coli ATCC 25922 [1] [µg/mL]","MIC, Salmonella Enteritidis [2] [µg/mL]","MIC, S. aureus ATCC 29213 [3] [µg/mL]",hemolytic activity (in words) (porcine red blood cells),"HEK293 cell viability (HEK293 cells; at 128 µg/mL, mean of three independent experiments) [%]",cytotoxicity to HEK293 cells (in words) (HEK293 cells; at concentrations lower than 128 µg/mL),"toxicity to HEK293 cells (in words) (HEK293 cells; any of the concentrations tested, up to 128 µg/mL)"
KIKIPWGKVKDFLVGGMKAVGKK [TeBi1],1 to 2,4 to 8,4 to 8,not hemolytic at the concentrations tested,40,low or no cytotoxicity at lower concentrations,
SWLSKSVKKLVNKKNYTRLEKLAKKKLFNE [TeRu4],1,2 to 4,,not hemolytic at the concentrations tested; also recorded: not toxic,,,not toxic
